Measurements published in patent publication US12239720B2, “Compositions for use in lysis of selective cancer cells” (ONCOLYZE, INC., priority 2018, dated 2025).

Tested on: cancer cells
Experiment: Tumor cell necrosis of cancer cells versus normal cells (general statement)
Assay type: cell-based
Conditions: cancer cells vs normal cells; statement in the description, no data shown
Experimental: PNC-27 or PNC-28 is incubated with 6×10^6 cancer cells, for example, Mia-PaCa-2 cells, for 5 days at concentrations ranging from 0.001-750 μM. At different timepoints following treatment the cells are assessed for signs of necrosis, for example, membrane blebbing and disruption and formation of cell clumps coalescing into aggregates of cellular debris. Percent cell death is determined by measuring trypan blue dye uptake. Cancer cells are also treated with the negative control peptide PNC-29 and, separately, a peptide having only the p53 derived portion of PNC-27 or PNC-28 that cannot traverse the cell membrane due to the lack of the MRP peptide, administered at the same concentration as the test peptide. The effect of these control peptides on cellular growth, morphology and viability is determined.
As an additional control, PNC-27 or PNC-28 is combined with untransformed BMRPA1 acinar cells and with the untransformed breast epithelial cell line, MCF-10-2A at a concentration ranging from 0.001-750 μM to determine if the peptide is lethal to normal cell growth.

Sequence	tumor cell necrosis
ETFSDLWKLLKKWKMRRNQFWVKVQRG [PNC-28, p53 aa17-26-MRP]	induce tumor cell necrosis of cancer cells, but not normal cells
PPLSQETFSDLWKLLKKWKMRRNQFWVKVQRG [PNC-27]	induce tumor cell necrosis of cancer cells, but not normal cells
